Reference: patent US10155802B2, “Locally-active anticoagulants and anti-inflammatory agents” (priority 2011, dated 2018)
Entries after “also recorded” stand apart in the source; their conditions may differ.

How the values were obtained:
pooled human plasma [1] = assay: Activated partial thromboplastin time (APTT) clotting assay; format: biochemical
Summary of the method: (§1)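 Test compound diluted in HBS (20 mM HEPES, 150 mM NaCl, pH 7.4), mixed with pooled normal human plasma at 37 °C; APTT started with APTT reagent then CaCl2, PT with thromboplastin. APTT value is concentration giving 50% of maximum clotting delay (MCT50); PT IC50 is concentration prolonging clotting time by 50%.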

pooled human plasma [2] = assay: Prothrombin time (PT, thromboplastin) clotting assay; format: biochemical
Summary of the method: as §1

thrombin = thrombin (Homo sapiens, UniProt P00734); assay: Fibrinogen clotting assay (concentration needed to double the clotting time = IC50); format: biochemical; details: for IC50: IC50 (anti-clotting)
Description: The same enzyme kinetic assays were used to determine the inhibitory activities of MH2 and two MH2-derived peptides, MH2-allGS and MH2-GS (Table 4). Clotting assays were carried out to determine the inhibitory activities of the rest of the MH2 peptides by use of the protocols described previously (DiMaio 1990; Taka 2000; Su 2004). The assay employs bovine plasma fibrinogen dissolved at 0.1% in 50 mM Tris-Cl, 100 mM NaCl, 0.1% PEG-8000 at pH 7.6 (i.e. the clotting buffer). In addition to the use of optical densities or ODs (Gill 1989), concentrations of the peptide stock solutions were ranked (and corrected when necessary) by use of quantitative proton NMR spectroscopy (Cavaluzzi 2002). Each assay mixture contained a certain concentration of the peptide, and the reaction was started by the addition of human thrombin to a final concentration of approximately 0.5 nM. Optical absorbance of the assay mixtures was measured at 420 nm using the Spectramax™ plate reader. The onset clotting time was determined as an intersection of the baseline and the tangent line at point of inflection of the clotting curve. The concentration of an MH2 peptide needed to double the clotting time was defined as IC50 (DiMaio 1990) as illustrated in FIG. 4 and summarized in Table 4. The correlation between IC50 values and linker unfolding is similar to that for the BTI series of inhibitors (Table 3). […] (Table 3).

[3] = system: FeCl3-induced venous thrombosis (vena cava); assay: FeCl3-induced venous model of thrombosis in rats (thrombus weight); format: in vivo; details: rat, single-bolus injection via tail vein
Description: Male Sprague-Dawley rats (250-310 g; Charles River Laboratories, St-Constant, QC, Canada) were acclimated for at least 3 days prior to the start of the study. Animals were housed in microisolator cages and were kept on a 12-hr light/dark cycle with constant temperature and humidity. Food and water were provided ad libitum. Various anti-thrombotic agents and peptides of this invention were dissolved in saline (0.9% sodium chloride) prior to use.
The FeCl3-induced venous model of thrombosis in rats was generated as described by Wang and Xu (Wang 2005) with some modifications (Couture 2011). Briefly, rats were anesthetized with a 2.5% isoflurane/oxygen mixture and placed on a heat source (35-37° C.). The vena cava was then exposed via a midline incision and the region between the renal and iliolumbar veins was isolated. […]
Protein content of the thrombus was also measured according to protocol by Wang (Wang 2005). […] Contents of amino acids and small peptides were measured at OD280 with digestion buffer used as a blank.
Statistical analysis was conducted using GraphPad™ Prism (GraphPad Software Inc., San Diego Calif., USA). Data were analyzed using one-way ANOVA with post-hoc Bonferroni correction for multiple comparisons. The relationship between thrombus weight and thrombus volume was determined by linear regression. […]

`CC[C@H](C)[C@H](N)C(=O)N[C@@H](CCCNC(=N)N)C(=O)N[C@@H](Cc1ccccc1)C(=O)N[C@H](C(=O)N[C@@H](CC(=O)O)C(=O)NCC(=O)N[C@@H](CCC(=O)O)C(=O)N[C@@H](Cc1c[nH]c2ccccc12)C(=O)N[C@H](C(=O)N[C@@H](Cc1c[nH]c2ccccc12)C(=O)N[C@@H](CC(=O)O)C(=O)N[C@@H](CC(=O)O)C(=O)N[C@@H](C)C(=O)N[C@H](C(=O)N[C@@H](CCCCN)C(=O)N[C@H](C(=O)N[C@@H](Cc1c[nH]c2ccccc12)C(=O)N[C@H](C(=O)N[C@@H](Cc1c[nH]c2ccccc12)C(=O)N[C@H](C(=O)N[C@@H](CCC(=O)O)C(=O)NCC(=O)N[C@@H](CC(=O)O)C(=O)N[C@@H](Cc1ccccc1)C(=O)N[C@@H](CCC(=O)O)C(=O)N[C@@H](CCC(=O)O)C(=O)N[C@H](C(=O)N1CCC[C@H]1C(=O)N[C@@H](CCC(=O)O)C(=O)N[C@@H](CCC(=O)O)C(=O)N[C@@H](Cc1ccc(O)cc1)C(=O)N[C@@H](CC(C)C)C(=O)N[C@@H](CCC(N)=O)C(=O)O)[C@@H](C)CC)[C@@H](C)O)[C@@H](C)O)[C@@H](C)O)[C@@H](C)O)[C@@H](C)O)[C@@H](C)O` [MH2-wZIP4] was tested, and the EC50 (pooled human plasma [1]; 37° C., concentration for 50% of maximum delay in clotting time, read-out: MTC50 (APTT)) was 8000 nM, the “dose response in APTT assays” value (pooled human plasma [1]; in words) was “saturable dose response” and the “Plateau of prothrombin time dose response” value (pooled human plasma [2]; 37° C.) was “(Plateau at >900 nM)”. For the same compound, the IC50 (pooled human plasma [2]; 37° C., concentration that prolongs clotting time by 50%) was 1000 nM, the “anticoagulant effect in PT versus APTT assays” value (pooled human plasma [2]; in words) was “greatly-reduced anticoagulant potency in both the PT and APTT assays” and the Ki (thrombin) was roughly 150 nM. For the same compound, the IC50 (thrombin; T = 25° C.) was roughly 250 nM, the IC50 (thrombin; T = 37° C.) was 154 nM and the “reduction of thrombus weight, venous model” value [3] was “particularly efficacious in reducing the weight of local thrombus formation; also recorded: more effective than other anti-thrombotic agents (heparin, argatroban and bivalirudin)”.
